The text below walks through data of patent publication US4080467A, “Pharmaceutical compositions comprising 1,3-dithiolan-2-ylidene malonate derivatives” (Nihon Nohyaku Co., Ltd., priority 1976, dated 1978).

This assay concerns Acute Liver Damage associated with Centrilobular Necrosis (carbon tetrachloride). As to the kind of experiment: Protective effect on acute liver damage associated with centrilobular necrosis (carbon tetrachloride model). In kind it is in vivo, mice (four-week-old male, dd strain). Conditions: 250 mg/kg oral 6 h before CCl4, average of 5 to 6 mice; for p-GPT (plasma glutamic-pyruvic transaminase activity): 24 h after CCl4, values over 1,000 regarded as 1,000; for Liver Damage Index: 0 normal, 2 slightly recognized, 4 clearly observable damage, 6 heavy damage. From the text:
Carbon tetrachloride (CCl4) administration induces centrilobular necrosis of the liver associated with loss of diphosphopyridine nucleotide, hepatic glycogen, coenzyme A and increase in neutral fat. Release of several enzymes from the hepatocytes, and increases of enzyme activities in the plasma are recognized as the result of the damage of the liver. A suitable means for evaluating the degree of damage induced by CCl4 or the degree of protection afforded by drugs is to study the plasma glutamic-pyruvic transaminase (p-GPT) activity.
Method: The test compounds were dissolved or suspended in olive oil and administered orally at the dose of 250 mg/kg to the mice (Four-week-old male mice-dd strain). After 6 hours, CCl4 was administered orally (0.05 ml/kg as olive oil solution). Animals were killed 24 hours after CCl4 administration, and the liver was grossly observed. The plasma was obtained by centrifugation. Activities of p-GPT were determined by the method of Reitman and Frankel and expressed in Karmen units.
Score for liver damage was as follows: […]
4 Clearly observable damage
Each figure indicates average of 5 to 6 mice. Values of p-GPT over 1,000 Karmen unit regarded as 1,000 for calculation of average for convenience.

For `COC(=O)C(C(=O)OC)=C1SCCS1` [Compound 1], the “p-GPT (plasma glutamic-pyruvic transaminase activity)” value (“p-GPT” below) was 200 Karmen units and the “Liver Damage Index” value is 2.2.

`CCCOC(=O)C(C(=O)OCCC)=C1SCCS1` [Compound 3, Di-n-propyl 1,3-dithiolan-2-ylidene malonate]: the “p-GPT” value amounted to 26 Karmen units and the “Liver Damage Index” value is 1.0.

On to `CCCCOC(=O)C(C(=O)OCCCC)=C1SCCS1` [Compound 5], for which the “p-GPT” value stood at 322 Karmen units and the “Liver Damage Index” value amounted to 3.0.

With `CCC(C)OC(=O)C(C(=O)OC(C)CC)=C1SCCS1` (stereo not shown) [Compound 7], the “p-GPT” value amounted to 102 Karmen units and the “Liver Damage Index” value was 1.2.

With `CC(C)(C)OC(=O)C(C(=O)OC(C)(C)C)=C1SCCS1` [Compound 8], the “p-GPT” value stood at 230 Karmen units and the “Liver Damage Index” value is 1.2.

For `CCCCCOC(=O)C(C(=O)OCCCCC)=C1SCCS1` [Compound 9], the “p-GPT” value amounted to 550 Karmen units and the “Liver Damage Index” value stood at 3.2.

Take `CC(C)CCOC(=O)C(C(=O)OCCC(C)C)=C1SCCS1` [Compound 10]: the “p-GPT” value was found to be 350 Karmen units and the “Liver Damage Index” value was found to be 3.3.

For the compound `CSC(=O)C(C(=O)SC)=C1SCCS1` [Compound 11], the “p-GPT” value is 750 Karmen units and the “Liver Damage Index” value is reported as 2.5.

Turning to `CCCCSC(=O)C(C(=O)SCCCC)=C1SCCS1` [Compound 14], the “p-GPT” value is recorded as 241 Karmen units and the “Liver Damage Index” value was found to be 1.4.

As to `COCCOC(=O)C(C(=O)OCCOC)=C1SCCS1` [Compound 15, di(methoxyethyl) 1,3-dithiolan-2-ylidene malonate], the “p-GPT” value is 85 Karmen units and the “Liver Damage Index” value is on record as 1.5.

As to `CCOCCOC(=O)C(C(=O)OCCOCC)=C1SCCS1` [Compound 16], the “p-GPT” value is 150 Karmen units and the “Liver Damage Index” value amounted to 1.0.

Consider `CCCCOCCOC(=O)C(C(=O)OCCOCCCC)=C1SCCS1` [Compound 17], for which the “p-GPT” value is 242 Karmen units and the “Liver Damage Index” value turned out to be 3.0.

For `CCOC(=O)C(C(=O)OC)=C1SCCS1` [Compound 18], the “p-GPT” value stood at 240 Karmen units and the “Liver Damage Index” value was found to be 1.4.

As to `COC(=O)C(C(=O)OC(C)C)=C1SCCS1` [Compound 19, Methyl isopropyl 1,3-dithiolan-2-ylidene malonate], the “p-GPT” value was determined as 89 Karmen units and the “Liver Damage Index” value is 1.0.

On to `CC(C)COC(=O)C(C(=O)OC(C)C)=C1SCCS1` [Compound 23], for which the “p-GPT” value was 102 Karmen units and the “Liver Damage Index” value came to 1.0.

On to `CCOCCOC(=O)C(C(=O)OCC)=C1SCCS1` [Compound 25], for which the “p-GPT” value is given as 85 Karmen units and the “Liver Damage Index” value is given as 1.0.

Take `CCOC(=O)C(C(=O)SC(C)C)=C1SCCS1` [Compound 27]: the “p-GPT” value worked out at 18 Karmen units and the “Liver Damage Index” value is recorded as 0.4.

As for `CCCCSC(=O)C(C(=O)OCC)=C1SCCS1` [Compound 28], the “p-GPT” value stood at 31 Karmen units and the “Liver Damage Index” value came to 0.8.

Turning to `COC(=O)C(C(=O)OC)=C1SCC[S+]1[O-]` (stereo not shown) [Compound 29], the “p-GPT” value is recorded as 222 Karmen units and the “Liver Damage Index” value is listed as 0.6.

Regarding `CC(C)(C)OC(=O)C(C(=O)OC(C)(C)C)=C1SCC[S+]1[O-]` (stereo not shown) [Compound 33], the “p-GPT” value is listed as 212 Karmen units and the “Liver Damage Index” value is reported as 1.4.
